Data: ChEMBL document CHEMBL4393697, “Lipophilic efficient phenylthiazoles with potent undecaprenyl pyrophosphatase inhibitory activity” (Eur J Med Chem, 2019)
≈ marks a conversion by molar mass, not a printed value. Calls of active or inactive are those of the source. No cut-off for these calls is given here.

Columns and labels:
Assay type in all cases: functional
Staphylococcus aureus [1] = assay: Bactericidal activity against Staphylococcus aureus NRS107 assessed as reduction in bacterial cell growth incubated for 18 to 20 hrs followed by re-plating on tryptic soy agar plates at 37 degC for 18 hrs by broth microdilution assay
Staphylococcus aureus [2] = assay: Antibacterial activity against vancomycin resistant Staphylococcus aureus VRS11a assessed as reduction in bacterial cell growth incubated for 18 to 20 hrs by broth microdilution method
Staphylococcus aureus [3] = assay: Bactericidal activity against vancomycin resistant Staphylococcus aureus VRS12 assessed as reduction in bacterial cell growth incubated for 18 to 20 hrs followed by re-plating on tryptic soy agar plates at 37 degC for 18 hrs by broth microdilution assay
Streptococcus pneumoniae [4] = assay: Bactericidal activity against Cephalosporin resistant Streptococcus pneumoniae ATCC 51916 assessed as reduction in bacterial cell growth incubated for 18 to 20 hrs followed by re-plating on tryptic soy agar plates at 37 degC for 18 hrs by broth microdilution assay
Staphylococcus aureus [5] = assay: Antibacterial activity against vancomycin resistant Staphylococcus aureus VRS10 assessed as reduction in bacterial cell growth incubated for 18 to 20 hrs by broth microdilution method
Enterococcus faecium [6] = assay: Bactericidal activity against vancomycin resistant Enterococcus faecium ATCC 700221 assessed as reduction in bacterial cell growth incubated for 18 to 20 hrs followed by re-plating on tryptic soy agar plates at 37 degC for 18 hrs by broth microdilution assay
Staphylococcus aureus [7] = assay: Bactericidal activity against Staphylococcus aureus ATCC 6538 assessed as reduction in bacterial cell growth incubated for 18 to 20 hrs followed by re-plating on tryptic soy agar plates at 37 degC for 18 hrs by broth microdilution assay
Enterococcus faecalis [8] = assay: Antibacterial activity against vancomycin resistant Enterococcus faecalis ATCC 51299 assessed as reduction in bacterial cell growth incubated for 18 to 20 hrs by broth microdilution method
Staphylococcus aureus [9] = assay: Antibacterial activity against vancomycin resistant Staphylococcus aureus VRS12 assessed as reduction in bacterial cell growth incubated for 18 to 20 hrs by broth microdilution method
Listeria monocytogenes = assay: Antibacterial activity against Listeria monocytogenes ATCC 19111 assessed as reduction in bacterial cell growth incubated for 18 to 20 hrs by broth microdilution method
Streptococcus pneumoniae [10] = assay: Antibacterial activity against Cephalosporin resistant Streptococcus pneumoniae ATCC 51916 assessed as reduction in bacterial cell growth incubated for 18 to 20 hrs by broth microdilution method
Streptococcus pneumoniae [11] = assay: Antibacterial activity against Methicillin resistant Streptococcus pneumoniae ATCC 700677 assessed as reduction in bacterial cell growth incubated for 18 to 20 hrs by broth microdilution method
Staphylococcus aureus [12] = assay: Antibacterial activity against methicillin-resistant Staphylococcus aureus USA400 assessed as reduction in CFU at 4 x MIC preincubated for 12 hrs in Tryptic soy broth followed by incubation for 18 to 20 hrs on TSA plate by time-kill assay
Enterococcus faecalis [13] = assay: Bactericidal activity against vancomycin resistant Enterococcus faecalis ATCC 51299 assessed as reduction in bacterial cell growth incubated for 18 to 20 hrs followed by re-plating on tryptic soy agar plates at 37 degC for 18 hrs by broth microdilution assay
Staphylococcus aureus [14] = assay: Bactericidal activity against methicillin-resistant Staphylococcus aureus USA300 assessed as reduction in bacterial cell growth incubated for 18 to 20 hrs followed by re-plating on tryptic soy agar plates at 37 degC for 18 hrs by broth microdilution assay
Staphylococcus aureus [15] = assay: Bactericidal activity against methicillin resistant Staphylococcus aureus NRS119 assessed as reduction in bacterial cell growth incubated for 18 to 20 hrs followed by re-plating on tryptic soy agar plates at 37 degC for 18 hrs by broth microdilution assay
Staphylococcus aureus [16] = assay: Antibacterial activity against intracellular methicillin resistant Staphylococcus aureus USA400 infected in mouse J774 cells assessed as log10 reduction of viable bacterial cells incubated for 24 hrs followed by re-plating on tryptic soy agar plates at 37 degC for 18 to 22 hrs by broth microdilution assay
Staphylococcus aureus [17] = assay: Bactericidal activity against vancomycin resistant Staphylococcus aureus VRS11a assessed as reduction in bacterial cell growth incubated for 18 to 20 hrs followed by re-plating on tryptic soy agar plates at 37 degC for 18 hrs by broth microdilution assay
Staphylococcus aureus [18] = assay: Bactericidal activity against vancomycin resistant Staphylococcus aureus VRS10 assessed as reduction in bacterial cell growth incubated for 18 to 20 hrs followed by re-plating on tryptic soy agar plates at 37 degC for 18 hrs by broth microdilution assay
Enterococcus faecium [19] = assay: Antibacterial activity against vancomycin resistant Enterococcus faecium ATCC 700221 assessed as reduction in bacterial cell growth incubated for 18 to 20 hrs by broth microdilution method

Question: With `CN[C@H](CC(C)C)C(=O)N[C@H]1C(=O)N[C@@H](CC(N)=O)C(=O)N[C@H]2C(=O)N[C@H]3C(=O)N[C@H](C(=O)N[C@H](C(=O)O)c4cc(O)cc(O)c4-c4cc3ccc4O)[C@H](O)c3ccc(c(Cl)c3)Oc3cc2cc(c3O[C@@H]2O[C@H](CO)[C@@H](O)[C@H](O)[C@H]2O[C@H]2C[C@](C)(N)[C@H](O)[C@H](C)O2)Oc2ccc(cc2Cl)[C@H]1O` [VANCOMYCIN] as the compound, how does the MBC (Staphylococcus aureus [1]) read?
Answer: 2 µg/mL (≈ 1.38 µM)

Question: What about the MIC (Staphylococcus aureus [2]) of the same compound?
Answer: > 64 µg/mL

Question: And the MBC (Staphylococcus aureus [3])?
Answer: 64 µg/mL (≈ 44.2 µM)

Question: What about the MBC (Streptococcus pneumoniae [4]) of the same compound?
Answer: 1 µg/mL (≈ 0.69 µM)

Question: And the MIC (Staphylococcus aureus [5])?
Answer: > 64 µg/mL

Question: What about the MBC (Enterococcus faecium [6]) of the same compound?
Answer: > 64 µg/mL

Question: And the MBC (Staphylococcus aureus [7])?
Answer: 1 µg/mL (≈ 0.69 µM)

Question: What about the MIC (Enterococcus faecalis [8]) of the same compound?
Answer: 32 µg/mL (≈ 22.1 µM)

Question: And the MIC (Staphylococcus aureus [9])?
Answer: 64 µg/mL (≈ 44.2 µM)

Question: What about the MIC (Listeria monocytogenes) of the same compound?
Answer: 1 µg/mL (≈ 0.69 µM)

Question: And the MIC (Streptococcus pneumoniae [10])?
Answer: 1 µg/mL (≈ 0.69 µM)

Question: And the MIC (Streptococcus pneumoniae [11])?
Answer: 2 µg/mL (≈ 1.38 µM)

Question: And the inhibition (Staphylococcus aureus [12])?
Answer: Active

Question: What about the MBC (Enterococcus faecalis [13]) of the same compound?
Answer: > 64 µg/mL

Question: And the MBC (Staphylococcus aureus [14])?
Answer: 4 µg/mL (≈ 2.76 µM)

Question: And the MBC (Staphylococcus aureus [15])?
Answer: 1 µg/mL (≈ 0.69 µM)

Question: And the inhibition (Staphylococcus aureus [16])?
Answer: inactive

Question: What about the MBC (Staphylococcus aureus [17]) of the same compound?
Answer: > 64 µg/mL

Question: What about the MBC (Staphylococcus aureus [18]) of the same compound?
Answer: > 64 µg/mL

Question: And the MIC (Enterococcus faecium [19])?
Answer: > 64 µg/mL
